Test system: P-2 mediated bacterial killing
Assay: Perforin-2 mediated killing of MRSA by BV2 phagocytic cells in vitro (FIG. 14c)
Details: phagocytic cell BV2, in vitro, listed as MLN4294

NS(=O)(=O)OC[C@@H]1CC(n2ccc3c(N[C@H]4CCc5ccccc54)ncnc32)C[C@@H]1O (stereo partly shown) [MLN 4924]
P-2 mediated bacterial killing: blocked

Reference: patent US20160250303A1, “PERFORIN-2 ACTIVATORS AND INHIBITORS AS DRUG TARGETS FOR INFECTIOUS DISEASE AND GUT INFLAMMATION” (UNIVERSITY OF MIAMI, priority 2013, published 2016)
